Reference: ChEMBL document CHEMBL4616641, “4-Hydroxy-3-methylbenzofuran-2-carbohydrazones as novel LSD1 inhibitors” (Bioorg Med Chem Lett, 2020)

Legend:
PC-3 = assay: Antiproliferative activity against human PC3 cells assessed as inhibition of cell growth
MGC-803 = assay: Antiproliferative activity against human MGC803 cells assessed as inhibition of cell growth by MTT assay
MCF7 = assay: Antiproliferative activity against human MCF7 cells assessed as inhibition of cell growth
HT-29 = assay: Antiproliferative activity against human HT-29 cells assessed as inhibition of cell growth
U-87 MG = assay: Antiproliferative activity against human U87MG cells assessed as inhibition of cell growth
PANC-1 = assay: Antiproliferative activity against human PANC1 cells assessed as inhibition of cell growth

SMILES | IC50 (PC-3) [µM] | IC50 (MGC-803) [µM] | other results
Cc1c(C(=O)N/N=C\c2cc([N+](=O)[O-])ccc2O)oc2cccc(O)c12 | 17.1 | – | –
Cc1c(C(=O)N/N=C\c2cccc(F)c2O)oc2cccc(O)c12 | 12.7 | 8.35 | –
Cc1c(C(=O)N/N=C\c2ccccc2)oc2cccc(O)c12 | 29.2 | – | –
Cc1c(C(=O)N/N=C\c2c(O)cccc2Cl)oc2cccc(O)c12 | 18.7 | – | –
Cc1c(C(=O)N/N=C\c2cc(O)ccc2O)oc2cccc(O)c12 | 95.5 | – | –
Cc1c(C(=O)N/N=C\c2ccccc2O)oc2cccc(O)c12 | 8.35 | 10.6 | –
Cc1c(C(=O)N/N=C\c2ccc(F)cc2)oc2cccc(O)c12 | ≥ 40 | – | –
COc1cccc(/C=N\NC(=O)c2oc3cccc(O)c3c2C)c1 | ≥ 40 | – | –
Cc1c(C(=O)N/N=C\c2cccc(O)c2)oc2cccc(O)c12 | 17.6 | – | –
Cc1c(C(=O)N/N=C\c2ccco2)oc2cccc(O)c12 | ≥ 40 | – | –
Cc1c(C(=O)N/N=C\c2ccc(C(F)(F)F)cc2)oc2cccc(O)c12 | ≥ 40 | – | –
Cc1c(C(=O)N/N=C\c2cc(Cl)cc(Cl)c2O)oc2cccc(O)c12 | 9.59 | 4.36 | –
Cc1c(C(=O)N/N=C\c2cccnc2)oc2cccc(O)c12 | ≥ 40 | – | –
Cc1c(C(=O)N/N=C\c2ccccc2F)oc2cccc(O)c12 | ≥ 40 | – | –
Cc1c(C(=O)N/N=C\c2cccc(F)c2)oc2cccc(O)c12 | ≥ 40 | – | –
Cc1c(C(=O)N/N=C\c2ccccn2)oc2cccc(O)c12 | ≥ 40 | – | –
COc1ccccc1/C=N\NC(=O)c1oc2cccc(O)c2c1C | 32.7 | – | –
Cc1c(C(=O)N/N=C\c2ccc(O)c(O)c2O)oc2cccc(O)c12 | ≥ 40 | 18.1 | IC50 (MCF7): 17.1 µM; IC50 (HT-29): > 20 µM; IC50 (U-87 MG): 5.96 µM; IC50 (PANC-1): > 20 µM
Cc1ccc(O)c(/C=N\NC(=O)c2oc3cccc(O)c3c2C)c1 | 7.35 | 5.99 | –
Cc1c(C(=O)N/N=C\c2cc(F)ccc2O)oc2cccc(O)c12 | 3.17 | 5.23 | –
Cc1c(C(=O)N/N=C\c2cccc(O)c2O)oc2cccc(O)c12 | 12.2 | 5.03 | –
Cc1c(C(=O)N/N=C\c2cc(Cl)ccc2O)oc2cccc(O)c12 | 3.12 | 4.16 | –
Cc1c(C(=O)N/N=C\c2ccncc2)oc2cccc(O)c12 | ≥ 40 | – | –
Cc1c(C(=O)N/N=C\c2ccc(O)cc2)oc2cccc(O)c12 | 21.7 | – | –
Cc1c(C(=O)N/N=C\c2cccs2)oc2cccc(O)c12 | 22.3 | – | –
Cc1c(C(=O)N/N=C\c2cccc(Br)c2O)oc2cccc(O)c12 | 16.6 | 14.2 | –
Cc1c(C(=O)N/N=C\c2ccccc2C(F)(F)F)oc2cccc(O)c12 | 26.2 | – | –
Cc1c(C(=O)N/N=C\c2ccc(Br)cc2O)oc2cccc(O)c12 | 2.05 | 5.46 | –
Cc1c(C(=O)N/N=C\c2c(O)cccc2F)oc2cccc(O)c12 | 8.05 | 10.8 | IC50 (MCF7): 1.75 µM; IC50 (HT-29): 2.2 µM; IC50 (U-87 MG): 9.27 µM; IC50 (PANC-1): 8.23 µM
Cc1c(C(=O)N/N=C\c2ccc(O)cc2O)oc2cccc(O)c12 | 14.8 | 7.33 | IC50 (MCF7): 2.08 µM; IC50 (HT-29): 2.88 µM; IC50 (U-87 MG): 4.39 µM; IC50 (PANC-1): 9.77 µM
